Assay results taken from patent publication US11129801B2 (SigmaThera SAS, priority 2016, dated 2021).

B1: BDNF: Brain-derived neurotrophic factor, used as a reference compound (protein, UniProt P23560 19-247, looked up)
Neurotrophic factor BDNF …: APMKEANIRGQGGLAYPGVRTHGTLESVNGPKAGSRGLTSLADTFEHVIEELLDEDQKVRPNEENNKDADLYTSRVMLSSQVPLEPPLLFLLEEYKNYLDAANMSMRVRRHSDPARRGELSVCDSISEWVTAADKKTAVDMSGGTVTVLEKVPVSKGQLKQYFYETKCNPMGYTKEGCRGIDKRHWNSQCRTTQSYVRALTMDSKKRIGWRFIRIDTSCVCTLTIKRGR

Experiments:
[1] = system: Tau protein phosphorylated on Serine 199 (pTauS199); experiment: ELISA of cortical pTauS199, Aβ25-35 mouse model; assay type: in vivo; details: Experiment 2, post-treatment
Protocol: In Experiment 2, twelve mice per experimental group were administered Sc.Aβ or Aβ25-35-amyloid peptide on day 0 by i.c.v. injection. […] Animals were tested at day 7 and later.
For each of Experiments 1-4, on day 7, all animals were tested for the spontaneous alternation performance in the Y-maze test, an index of spatial working memory. On day 8 and 9, the contextual long-term memory of the animals was assessed using the step-through type passive avoidance procedure. On day 9, immediately after the retention session, animals were sacrificed by decapitation and the hippocampus and cortex dissected out. Lipid peroxidation was analyzed in the hippocampus, whereas neuroinflammation, apoptosis, amyloid burden and hyperphosphorylation of tau protein were analyzed in cortex.
Enzyme-linked immunosorbant assay (ELISA) assays: Contents in GFAP, Caspase 12, Amyloid-beta 1-40, Amyloid-beta 1-42, Total Tau, and pTau on Ser199 were analyzed by using commercial ELISA assay kit. • GFAP: Supplier: USCNK #Ref: SEA068Mu • Total Tau: Supplier: Novex #Ref: KMB7011 • pTau (S199): Supplier: Novex #Ref: KMB7041 • Amyloid beta 1-40: Supplier: Novex #Ref: KMB3481 • Amyloid beta 1-42: Supplier: Novex #Ref: KMB3441 • Caspase-12: Supplier: LSBio #Ref: LS-F11023 • BAX: Supplier: Euromedex#Ref: SEB343Mu • BCL2: Supplier: Euromedex #Ref: SEA778Mu […]

[2] = system: rat motor neurons (Islet 1/2 positive neurons); experiment: Survival of primary motor neurons injured by glutamate; assay type: cell-based; details: glutamate 40 μM, 20 min
Protocol: Rat motor neurons were cultured as described (Camu et al. (1994) Journal of the neurological sciences 124 Suppl: 73-74). Briefly, pregnant female rats of 14 days gestation were killed by cervical dislocation (Rats Wistar; Janvier Lab) and the foetuses were removed from the uterus. The spinal cord were removed and placed in ice-cold PBS. Tissue segments were spun down, incubated in 0.025% (w/v) of trypsin-EDTA (Panbiotech, Ref: P10-023100) for 10 min at 37° C. Fragments were transferred in 1 mL of complete Leibovitz medium containing BSA (0.4%, Dustcher, Ref: P06-1391100) and DNasel grade II (0.1 mg/ml, Panbiotech, ref: P60-37780100). Cells were then dissociated by several rounds of trituration, centrifuged for 5 min at 470 g on a 4% BSA cushion and re-suspended in 2 mL of supplemented L15 medium. Motor neurons were counted in a Neubauer cytometer using the trypan blue exclusion test. Cells were cultured at a density of 1.5×10^4 cells/well of a 96 wells plate on astrocyte monolayer in Neurobasal (Invitrogen, ref: 21103) containing 1% of B27 (Invitrogen, ref: 17504), 2 mM L-Glutamine (Panbiotech, ref: P04-80100), 1% of PS solution, […] 2-mercaptoethanol (Invitrogen, ref: 31350-010), 2% Horse serum (Invitrogen, Ref: 16050-122), 1 ng/ml of Brain-derived neurotrophic factor (BDNF, PanBiotech, Ref: CB-1115002) and 1 ng/ml of Glial derived neurotrophic factor (GDNF, Dustcher, Ref: CB-1116001) at 37° C. in a humidified air (95%)/CO2 (5%) atmosphere.
Briefly, after 10 days of culture, medium was removed and 100 μL of fresh medium (supplemented Neurobasal without neurotrophic factor) without or with test compound was added 1 h before glutamate intoxication. Then, Glutamate at 40 μM in absence or presence of test compound will be added in the culture medium and incubated 20 min. The cells were rinsed with incubation solution (3 wash-outs) and let in the neurobasal medium containing compounds or control medium for 24 h.
[…]_Control medium stimulated with vehicle medium […]
The data were expressed as mean±s.e.m (of 6 data per condition, 1 culture). […]

| Molecule | elevation of cortical pTauS199 [1] | protective effect on motor neuron survival ([2]; 0.1 μM, 0.3 μM, 1 μM, 3 μM and 10 μM) | Islet 1/2 positive neurons ([2]; 10 μM) | Islet 1/2 positive neurons ([2]; 50 ng/mL) |
| --- | --- | --- | --- | --- |
| CCC(C/C=C/c1ccccc1)(c1ccccc1)N(C)CC1CC1 (single isomer, unassigned; (+)) [igmesine, (+)-(E)-N-(cyclopropylmethyl)-N-methyl-3,6-diphenylhex-5-en-3-amine] | fully normalized | significant protective effect | 126 % of the control | – |
| B1 | – | – | – | 96.43 % of the control |
